Article PMC5494547 (2015)

Legend:
[1] = tested on: MBA1 (DNA, aptamer) TACACTGGGGAGTATTGCGGAGGAAGTGTA; assay: circular dichroism; settings: 1 µM MBA1, 50 mM ATP; quadruplex bands at 265 and 295 nm
[2] = tested on: MBA3 (DNA, aptamer) GCGCGCGGGGAGTATTGCGGAGGAGCGCGC; assay: circular dichroism; settings: CD unchanged by PPFP-Br; tighter folded G-quadruplex than ATP/MBA1

Nc1ncnc2c1ncn2[C@@H]1O[C@H](COP(=O)(O)OP(=O)(O)OP(=O)(O)O)[C@@H](O)[C@H]1O
binding [1]: yes | binding [2]: yes
